Measurements taken from paper PMC8124774, “Tuning Anti-Biofilm Activity of Manganese(II) Complexes: Linking Biological Effectiveness of Heteroaromatic Complexes of Alcohol, Aldehyde, Ketone, and Carboxylic Acid with Structural Effects and Redox Activity” (International Journal of Molecular Sciences, 2021).
Where “and” joins values, the source holds several entries; their conditions need not be identical. Identical values can stand only once.

What was measured:
[1] = biological target: T1, catalase from the bovine liver (Bos taurus, UniProt P00432); assay: catalase activity in the presence of the Mn(II) complexes (absorbance at 240 nm); assay type: biochemical; details: 0.5 mM complex, vs catalase alone
T1 construct: The catalase from the bovine liver solution; purchased Sigma–Aldrich; host or cells: bovine liver
T1 sequence (P00432 2-527 limits assumed): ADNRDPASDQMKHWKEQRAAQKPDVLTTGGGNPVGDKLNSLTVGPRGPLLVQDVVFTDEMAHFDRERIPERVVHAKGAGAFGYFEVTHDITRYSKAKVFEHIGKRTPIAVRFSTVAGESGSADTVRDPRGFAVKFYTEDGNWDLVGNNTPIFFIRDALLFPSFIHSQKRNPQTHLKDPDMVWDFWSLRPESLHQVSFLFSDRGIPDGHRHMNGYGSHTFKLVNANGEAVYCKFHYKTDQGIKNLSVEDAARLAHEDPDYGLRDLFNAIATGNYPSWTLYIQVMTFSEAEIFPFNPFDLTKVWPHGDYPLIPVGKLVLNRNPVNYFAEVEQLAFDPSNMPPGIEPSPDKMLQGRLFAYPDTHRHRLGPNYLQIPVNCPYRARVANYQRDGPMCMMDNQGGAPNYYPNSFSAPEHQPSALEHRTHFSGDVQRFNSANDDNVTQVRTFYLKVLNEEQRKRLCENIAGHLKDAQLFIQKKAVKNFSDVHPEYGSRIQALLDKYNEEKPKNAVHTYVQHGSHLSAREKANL
Description: First, the complexes were incubated with the catalase in the presence of a phosphate buffer, and then hydrogen peroxide was added thereto. To study the effect of the manganese complexes on the activity of CAT, its performance, in the presence of similar concentrations of the Mn complexes (0.5 mM), was investigated. The percentage of absorbance reduction over time was recorded at 240 nm. The positive control was the catalase sample in the absence of the Mn(II) complex. Figure 12 illustrates the effect of the Mn(II) complexes on the catalase activity.
The effect of the manganese complexes on the activity of catalase (CAT) was determined using the spectrophotometric method. The decrease in absorbance due to hydrogen peroxide depletion was recorded at 240 nm by the V-780 UV-Vis/NIR spectrophotometer (Jasco, Easton, MD, USA). The tests were performed in a 50-mM potassium phosphate buffer (PBS) at 37 °C, pH = 7.0. The catalase from the bovine liver solution (Sigma–Aldrich, St. Louis, MO, USA, lyophilized powder, ≥10,000 units/mg protein) was prepared in the PBS buffer as an initial dilution of ~1000 units/mL at 37 °C. The hydrogen peroxide solution, approximately 0.03% (w/w), was prepared by dilution in the PBS buffer to achieve the absorbance close to 1 a.u, and the PBS was used as a blank. The manganese complexes were diluted in the PBS buffer to stock the concentration of 1 mM. The mixture of 500 µL of the hydrogen peroxide, 1 µL of the catalase (final 1U of catalase activity), and 500 µL of the manganese complexes, previously incubated in a water bath at 37 °C, was added to a quartz cuvette (10 mm, 1 mL), closed by a cover, and placed in the spectrophotometer. The absorbance readings were performed in 10-s intervals during the first minute of the incubation time at 37 °C. The results were presented as the dependence on the percentage of the absorbance reduction over time.

[2] = tested on: P. aeruginosa PAO1 biofilm; assay: biofilm formation, crystal violet staining assay; assay type: cell-based, Pseudomonas aeruginosa; details: P. aeruginosa PAO1, vs untreated control
Description: (§1) All bacteria species were cultivated in trypticase soy broth (TSB) medium (Biocorp, Warsaw, Poland) for 18 h at 37 °C with shaking (160 rpm). Overnight cultures of bacteria were diluted 1:100 into fresh TSB medium and then placed in each of the 96 wells of a microtiter transparent plate (Greiner, Monroe, NC, USA). The manganese(II) complexes—[Mn-pyOH-SO4]n, Mn-imCHO-NO3, Mn-imCHO-Cl, Mn-dipyCO-NO3—and the ligands—pyOH, pyCOOH—were prepared by dissolving compounds in distilled water. […] The starting stock solution was of 2-mM concentration.
To evaluate the effect of the compounds on P. aeruginosa biofilm formation, a crystal violet staining assay was used, following previously described protocols. The concentration of the investigated compounds was in the range 0.0625–1 mM. The amount of biofilm formed was determined by measuring the absorbance at λ = 595 nm with the Infinite M200 PRO microplate reader (Tecan, Männedorf, Switzerland). The measurement results, expressed in absorbance units, were converted into percentages to allow the comparison of numerical data obtained in different experiments.

[3] = tested on: primary human fibroblasts (VH10); assay: cytotoxicity, MTT test; assay type: cell-based; details: VH10 cells, 24 h, 15–1000 µM
Description: Primary human fibroblasts (VH10) were cultured at 37 °C in a humidified 5% CO2 atmosphere in plastic dishes in Dulbecco’s modified eagle medium (DMEM) supplemented with 10% heat inactivated fetal calf serum, 2 mM of l-glutamine, and antibiotics (100 units/mL penicillin and 100 µg/mL streptomycin). Cytotoxic properties of manganese complexes were measured by EZcount^TM MTT cell assay kit (HiMedia Laboratories Pvt., Ltd., Mumbai, India) in accordance with the manufacturer’s instructions. Cells were seeded into a 96-well plate and incubated with manganese complexes in the concentration range of 15–1000 µM for 24 h at 37 °C in a humidified atmosphere of 5% CO2. After incubation, a solution of MTT (3-[4,5-dimethylthiazol-2-yl]-2, 5-diphenyl tetrazolium bromide) at a concentration (1 mg/mL) was added to each well. After incubation at 37 °C for 4 h, 100 µL of 0.04 M HCl in isopropanol was added to each well and mixed thoroughly to dissolve the dark blue crystals. The measurement of absorbance of the solution related to the number of live cells was conducted on a TECAN Spark Microplate Reader (TECAN, Männedorf, Switzerland) at 570 nm with a reference wavelength 600 nm. All samples were tested in three independent experiments. Results were normalized to the control.
Inhibitory concentrations (IC50) represent the concentrations of the tested samples required to inhibit 50% cell proliferation and were calculated from the mean values of data from wells.

[4] = tested on: Pseudomonas aeruginosa PAO1; assay: broth microdilution MIC, P. aeruginosa PAO1; assay type: cell-based; details: P. aeruginosa PAO1, planktonic cells
Description: (§2) The antimicrobial activities of the heteroaromatic ligands, Mn(II) complexes, and commercially available drug streptomycin were tested against standard bacterial strains: Staphylococcus aureus ATCC 6538P, Escherichia coli ATCC 8739, Pseudomonas aeruginosa PAO1 (biofilm model strain), and Pseudomonas aeruginosa LES B58 (clinical isolate). The P. aeruginosa PAO1 and LES B58 isolates were derived from the International Pseudomonas aeruginosa Reference Panel (http://bccm.belspo.be/about-us/bccm-lmg, accessed on 30 March 2021).
as §1
(§3) The quantitative assay of the antibacterial activity was performed by the broth microdilution method, in 96-well microtiter plates, in order to establish the minimum inhibitory concentration (MIC). To this purpose, serial two-fold dilutions of the compounds ranging between 1 and 0.0625 mM were made. The details of the experiment were presented in our previous paper.

[5] = tested on: Pseudomonas aeruginosa LES B58; assay: broth microdilution MIC, P. aeruginosa LES B58; assay type: cell-based; details: P. aeruginosa LES B58, planktonic cells
Description: as §2, §1, §3

Cc1[nH]cnc1C=O.Cc1[nH]cnc1C=O.O=[N+]([O-])[O-].O=[N+]([O-])[O-].[Mn+2] [Mn-imCHO-NO3]
Action on catalase activity [1]: promote the catalase activity | % Inhibit. Biofilm (0.25 mM) [2]: 52% | % Inhibit. Biofilm (0.5 mM) [2]: 56% | IC50 [3]: > 1000 µM | MIC [4]: > 1 mM and > 399 μg/ml | MIC [5]: > 1 mM and > 399 μg/ml

O=[N+]([O-])[O-].O=[N+]([O-])[O-].OCc1ccccn1.OCc1ccccn1.[Mn+2] [Mn-pyOH-NO3]
Action on catalase activity [1]: promote the catalase activity | % Inhibit. Biofilm (0.25 mM) [2]: 49% | % Inhibit. Biofilm (0.5 mM) [2]: 54% | IC50 [3]: 1000 µM | MIC [4]: > 1 mM and > 397 μg/ml | MIC [5]: > 1 mM and > 397 μg/ml
